How the values were obtained:
mAb 31E10/E7 [1] = assay: Solution-equilibrium ELISA (Friguet) KD of NHBA fragment–mAb complexes; type: binding, murine; details: equilibrium in solution, antigen 7 to 480 nM with mAb 0.7 nM, -^§ = No interaction was detected under the tested conditions, read-out: KD ± SD (no interaction detected)
Text: Next, we sought to directly compare, for their ability to reconstitute the epitope recognized by mAb 31E10/E7, the peptides identified by peptide scanning with the fragments previously identified by PROFILER. To this end, we selected Peptide 5 (Pep-5, spanning P95-E109; Fig 5A) and FrII (D91-A128; Fig 2A) as representatives of the two categories. First, we measured the ability of the fragments to compete with the whole antigen (NHBA-NUbp-His) for binding to mAb 31E10/E7 in the ELISA inhibition assay described above. […] To further analyze this, we measured the affinities of the NHBA fragments for mAb 31E10/E7 using an ELISA assay that can provide reliable estimates of the equilibrium dissociation constant (KD) of antigen-antibody complexes in solution [20].
KD values of complexes between mAb 31E10/E7 and NHBA fragments at equilibrium in solution were measured using the ELISA test of Friguet et al, exactly as described by Heinrich et al.. […] Under these conditions, absorbance is proportional to the concentration of free mAb 31E10/E7 added to each well. The results for each antigen were analyzed using the plot described by Friguet et al ([19]; S2 Fig), which provides a KD value for the complex in solution. Results were expressed as means and standard deviations of the 4 KD values determined for each of the 4 antigen concentrations used to coat the wells.

mAb 31E10/E7 [2] = assay: Inhibition ELISA of mAb 31E10/E7 binding to NHBA-NUbp-His; design: species or system murine
Text: We sought to verify whether the antigenic fragments identified by phage display analysis reacted against the 31E10/E7 mAb in a molecular context other than capsid proteins and how these binding activities compared to that of the whole antigen molecule. For this analysis, FrI and FrII were produced as GST fusion proteins and probed against the 31E10/E7 mAb in an inhibition ELISA assay. A third fragment, FrIII, encompassing residues F324-D391, was also produced in fusion with GST and used as a negative control. In the ELISA inhibition experiments, the NHBA-NUbp-His fusion protein was used as coating antigen and reactivity against 31E10/E7 was measured in the presence and in the absence of GST-FrI, GST-FrII and GST-FrIII.
The immunoreactivity of NHBA antigenic fragments against the 31E10/E7 mAb was tested using a previously described ELISA inhibition assay. Briefly, the 31E10/E7 mAb (1 μg/ml) was preincubated with micromolar concentrations of competitors (represented by the indicated NHBA fragments or by the entire antigen fused to an histidine tail) prior to the addition to microtiter wells sensitized with the whole fusion antigen (NHBA-NUbp fused to an histidine tail or NHBA-NUbp-His, 5 μg/ml). […] Percent inhibition was calculated by comparing the absorbance value of wells with and without the inhibitors.

For TPAS, the Kd (mAb 31E10/E7 [1]) was over 480 nM, the “competition with the whole antigen for binding to mAb 31E10/E7” value (mAb 31E10/E7 [2]; NHBA-NUbp-His coated 5 μg/ml, mAb 1 μg/ml, Fig 3B, three independent experiments) was “but not the TPAS tetrapeptide” and the “binding to the mAb” value (mAb 31E10/E7 [2]; even at high concentrations (Fig 3B)) was “unable to bind the mAb”.
